From ChEMBL document CHEMBL1641532, “Thiophene and bioisostere derivatives as new MMP12 inhibitors” (Bioorg Med Chem Lett, 2011)

Biological target: Macrophage metalloelastase (Homo sapiens, UniProt P39900)
Assay: Inhibition of MMP-12 catalytic domain

Sequence of Macrophage metalloelastase (P39900 whole entry, the tested form may be a part): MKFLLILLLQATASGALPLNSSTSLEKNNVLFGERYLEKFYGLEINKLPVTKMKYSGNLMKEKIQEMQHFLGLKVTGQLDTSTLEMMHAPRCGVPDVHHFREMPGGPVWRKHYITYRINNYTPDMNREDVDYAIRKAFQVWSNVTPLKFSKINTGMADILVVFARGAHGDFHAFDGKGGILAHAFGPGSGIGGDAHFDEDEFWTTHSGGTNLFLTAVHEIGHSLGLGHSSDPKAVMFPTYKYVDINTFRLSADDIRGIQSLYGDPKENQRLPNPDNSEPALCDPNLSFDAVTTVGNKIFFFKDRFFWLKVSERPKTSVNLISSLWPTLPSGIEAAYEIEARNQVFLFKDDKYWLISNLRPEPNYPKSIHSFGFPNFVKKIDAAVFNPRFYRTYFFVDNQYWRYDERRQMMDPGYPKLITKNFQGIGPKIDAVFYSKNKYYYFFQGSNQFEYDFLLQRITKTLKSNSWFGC

| SMILES | IC50 [nM] |
| --- | --- |
| O=C(NC[C@H]1CC[C@H](C(=O)O)CC1)c1cc(-c2ccc(OC(F)(F)F)cc2)cs1 | 400 |
| O=C(NC[C@H]1CC[C@H](C(=O)O)CC1)c1cc(-c2ccc(OC(F)(F)F)cc2)ns1 | 3600 |
| O=C(NC[C@H]1CC[C@H](C(=O)O)CC1)c1cc(-c2ccc(OC(F)(F)F)cc2)sn1 | 31000 |
| O=C(O)C[C@@H](NC(=O)c1cc(-c2ccc(OC(F)(F)F)cc2)c(F)s1)c1ccccc1 | 200 |

The next compounds have a lower IC50 than those just listed; values first:

| IC50 [nM] | SMILES |
| --- | --- |
| 85 | NC(=O)C[C@@H](NC(=O)c1cc(-c2ccc(OC(F)(F)F)cc2)c(F)s1)c1ccccc1 |
| 13 | O=C(O)C[C@@H](NC(=O)c1cc(-c2ccc(-c3ccncc3)cc2)c(F)s1)c1ccccc1 |
